Measurements reported in US10703761B2, “Bile acid receptor modulators and methods of use thereof” (City of Hope, priority 2016, dated 2020).
Entries after “also recorded” stand apart in the source; their conditions may differ.

Assays:
[1] = target: T1, Gal4 DNA binding domain FXR ligand-binding domain fusion protein (Homo sapiens, UniProt Q96RI1); test: Gal4 DBD-FXR LBD chimera transactivation assay in HEK 293 cells; type: cell-based; conditions: CDCA 100 μM, compounds 10 μM
T1 construct: expressed in transfected cells; host or cells: HEK 293
T1 sequence (Q96RI1 262-486 limits assumed): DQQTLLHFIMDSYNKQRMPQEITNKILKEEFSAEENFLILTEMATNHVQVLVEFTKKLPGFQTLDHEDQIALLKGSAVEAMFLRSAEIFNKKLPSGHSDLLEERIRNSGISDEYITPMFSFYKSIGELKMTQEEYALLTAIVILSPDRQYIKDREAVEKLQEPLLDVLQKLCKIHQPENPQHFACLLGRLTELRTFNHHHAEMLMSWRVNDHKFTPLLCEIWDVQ
Experimental: FIG. 10: Berberine derivatives inhibit FXR transactivation. HEK 293 cells were cotransfected with a luciferase reporter plasmid containing five copies of the Gal4 binding site and an expression vector for a Gal4 DNA binding domain FXR ligand-binding domain fusion protein, along with a CMX-β-gal internal control. CDCA: 100 μM, Compounds: 10 μM
In the presence of 100 μM CDCA, a concentration approximately threefold above that required for half-maximal activation of FXR, 10 μM selected berberine derivatives decreased FXR transactivation by nearly 50%.

[2] = system: metabolic nuclear receptors; test: Activation of metabolic nuclear receptors compared with native ligands; type: cell-based; conditions: 10 μM
Experimental: FIG. 2(A) HEK293 cells lacking or overexpressing TGR5 were treated with increasing doses of berberine for 16 hours and TGR5-reporting activity was evaluated using luciferase assays. FIG. 2(B) Ability of berberine to activate metabolic nuclear receptors was evaluated in comparison to native ligands. All ligands were used at a 10 μM concentration.
Our current efforts are also aimed at extending these studies in vivo to murine type II diabetic models (using high fat diet feeding) with and without the TGR5 receptor. Confirmation of the berberine effect was evaluated using q-RT-PCR to assess activated TGR5 target genes including inflammatory gene expression and deiodinase-2.

DIO mice = test: Hepatic lipid accumulation, Oil Red O staining; type: in vivo, mouse
Experimental: FIG. 9(A). lean mice. FIG. 9(B). DIO mice, FIG. 9(C). berberine, and FIG. 9(D). DY319. Intracellular lipids were stained with Oil Red O and visualized by phase-contrast microscopy (×200 magnification).
Cells on day 7 were washed twice with PBS, fixed with 10% neutral buffered formalin for 1 h at room temperature, washed with PBS and then dried completely. The fixed cells were stained with Oil Red O in an isopropanol/distilled water (6:4) solution for 30 min at room temperature and then washed twice with distilled water. The stained lipid droplets were observed, and microscopic images were obtained from randomly selected fields under a phase contrast microscope (AX70; Olympus, Tokyo, Japan) equipped with a digital camera and processed using ImagePro Plus software (Media Cybernetics, Silver Spring, Md., USA).

NCI-H716 cells = conditions: cited from earlier work
[3] = oral 1.0 g/day/person for 3 months; cited from earlier work
db/db mice = conditions: mouse, in vivo; cited from earlier work

SMILES: COc1ccc2cc3[n+](cc2c1OC)CCc1cc2c(cc1-3)OCO2 [berberine]
- Transactivation by GAL4 DBD-FXR LBD chimera [1]: did inhibit transactivation
- Activation of other metabolic nuclear receptors [2]: does not activate other metabolic nuclear receptors
- Hepatic lipid accumulation (DIO mice): prevent hepatic lipid accumulation
- Prohormone convertase 3 and proglucagon mRNA expression (NCI-H716 cells): promoted both prohormone convertase 3 and proglucagon mRNA expression
- GLP-1 release (NCI-H716 cells; in vitro): modulated GLP-1 release; also recorded: concentration-dependently stimulated GLP-1 release
- Efficacy and safety in type 2 diabetes and dyslipidemia [3]: effective and safe
- Metabolic properties in db/db mice (db/db mice): insulin sensitizing as well as weight- and lipid-lowering properties
